Data on ten compounds can be found in patent US8168673B2, “Compounds having CRTH2 antagonist activity” (Oxagen Limited, priority 2008, dated 2012).

For assay [1], the target named is T1, CRTH2 Receptor (Homo sapiens, UniProt Q9Y5Y4).
T1 construct: expressed in transfected cells; membranes
T1 sequence (Q9Y5Y4 1-395): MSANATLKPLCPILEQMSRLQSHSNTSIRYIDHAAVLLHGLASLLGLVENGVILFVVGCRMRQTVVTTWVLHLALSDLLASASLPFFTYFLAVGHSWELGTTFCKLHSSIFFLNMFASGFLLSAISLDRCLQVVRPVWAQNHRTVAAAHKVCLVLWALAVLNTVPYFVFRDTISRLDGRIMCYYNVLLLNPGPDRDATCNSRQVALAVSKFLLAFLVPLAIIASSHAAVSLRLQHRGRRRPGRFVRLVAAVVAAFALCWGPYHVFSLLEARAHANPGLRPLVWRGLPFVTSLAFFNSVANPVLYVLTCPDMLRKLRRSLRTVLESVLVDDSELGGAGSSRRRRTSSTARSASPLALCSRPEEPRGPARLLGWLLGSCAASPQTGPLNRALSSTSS
The assay is described as follows: Radioligand binding assay, [3H]PGD2 on CHO/CRTH2 cell membranes. Conditions: [3H]PGD2 competition. As to the method:
Chinese Hamster Ovary cells were transfected with CRTH2 or DP receptors (CHO/CRTH2 and CHO/DP) and were maintained in culture in a humidified atmosphere at 37° C. (5% CO2) in Minimum Essential Medium (MEM) supplemented with 10% foetal bovine serum, 2 mM glutamine, and 1 mg ml^−1 active G418. The cells were passaged every 2-3 days. For radioligand binding assay, cells were prepared in triple-layer flasks or in 175 cm^2 square flasks (for membrane preparation.
Membranes were prepared either from CHO/CRTH2 and CHO/DP cells, or from platelets (as a source of TP receptors). CHO cells grown to confluency were washed with PBS and detached using a Versene solution (15 ml per flask). When the cells were grown in 175 cm^2 square flask, they were collected by scrapping in PBS. The cell suspensions were centrifuged (1,700 rpm, 10 min, 4° C.) and resuspended in 15 ml of buffer (1×HBSS, supplemented with 10 mM HEPES, pH 7.3). Cell suspensions were then homogenised using an Ultra Turrax at setting 4-6 for 20 s. The homogenate was centrifuged at 1,700 rpm for 10 min and the supernatant was collected and centrifuged at 20,000 rpm for 1 h at 4° C. The resulting pellet was resuspended in buffer and stored at −80° C. in aliquots of 200-500 μl. The protein concentration was determined by the method of Bradford (1976), using bovine serum albumin as standard. The platelets were washed by centrifugation at 600×g for 10 min and resuspended in ice-cold assay buffer (10 mM Tris-HCl, pH 7.4, 5 mM Glucose, 120 mM NaCl, 10 μM indomethacin) and directly centrifuged at 20,000 rpm for 30 min at 4° C. The resulting pellet was treated as described above.
[^3H]PGD2 (160 Ci/mmol) binding experiments were performed on membranes prepared as described above. Assays were performed in a final volume of 100 μl of buffer (1×HBSS/HEPES 10 mM, pH 7.3). Cell membranes (15 μg) were preincubated at room temperature with varying concentration of competing ligand for 15 min. [^3H]PGD2 was then added and the incubation continued for a further one hour at room temperature. The reaction was terminated by the addition of 200 μl ice-cold assay buffer to each well, followed by rapid filtration through Whatman GF/B glass fibre filters using a Unifilter Cell harvester (PerkinElmer Life Sciences) and six washes of 300 μl of ice-cold buffer. The Unifilter plates were dried at room temperature for at least 1 h and the radioactivity retained on the filters was determined on a Beta Trilux counter (PerkinElmer Life Sciences), following addition of 40 μl of Optiphase Hi-Safe 3 (Wallac) liquid scintillation. Non specific binding was defined in the presence of 10 μM unlabelled PGD2. Assays were performed in duplicate.

The subject of assay [2] is PGD2 induced eosinophil shape change. In words: Human whole blood eosinophil shape change assay. The assay is classed as cell-based. Conditions: for IC50: Eosinophil, human whole blood, 10 nM PGD2, read-out: IC50 Values for the Effect of Test Compounds on 10 nM PGD2-induced Eosinophil Shape Change; for activity in whole blood, in words: summary statement on Table 2. On the procedure: Compounds 1 to 9 were assayed for their effect on PGD2 induced eosinophil shape change.
Compounds (1 μl, 200× final concentration) were added directly to 200 μl whole blood, mixed well and incubated for 15 min, 37° C., 5% CO2. After this time, cell shape was fixed by addition of 300 μl Cytofix™ buffer (BD Biosciences), 15 min on ice. 10 ml RBC lysis buffer was added to the fixed cells, incubated 5 min, at room temperature and centrifuged, 300×g for 5 min. Supernatant (containing lysed red cells) was removed and the lysis step was repeated. Leukocytes were resuspended in 250 μl RPMI/10% FCS and shape change analysed by FACS. Eosinophils were gated out based on their autofluorescence and 2000 eosinophil events were counted per sample. Data were analysed in triplicate.

In assay [3] the target is T1, CRTH2 Receptor. The assay is described as follows: Radioligand binding assay, [3H]PGD2 on CHO/CRTH2 cell membranes. The following applies: summary statement on Table 1.

One may read the Ki as a measure of affinity in units of concentration, obtained from inhibition or displacement. High values mean a looser hold on the target, low ones a stronger hold on the target. `Cc1c(Cc2cccc(S(=O)(=O)N3CCCCC3)c2)c2cc(F)ccc2n1CC(=O)O` [Compound 4, 2-(5-Fluoro-2-methyl-3-(3-(piperidin-1-ylsulfonyl)benzyl)-1H-indol-1-yl)acetic Acid] registered an inhibition constant (Ki) at CRTH2 Receptor [1] of 55 nM. In other words, the double-digit nanomolar range.

Broadly, the IC50 is the concentration that inhibits the measured activity by half. As to `Cc1c(Cc2ccc(S(=O)(=O)C3CCCC3)cc2)c2cc(F)ccc2n1CC(=O)O` [Compound 7, 2-(3-(4-(Cyclopentylsulfonyl)benzyl)-5-fluoro-2-methyl-1H-indol-1-yl)acetic Acid], on CRTH2 Receptor [1], the affinity, expressed as Ki, was 5 nM. Besides, in assay [2], the IC50 worked out at 44 nM.

With `Cc1c(Cc2ccccc2S(=O)(=O)N2CCCC2)c2cc(F)ccc2n1CC(=O)O` [Compound 5, 2-(5-Fluoro-2-methyl-3-(2-(pyrrolidin-1-ylsulfonyl)benzyl)-1H-indol-1-yl)acetic Acid], in assay [2], the IC50 turned out to be 5 nM and the “activity in whole blood, in words” value is “activity is maintained in whole blood”. Moreover, the “intrinsic activity (CRTH2 antagonist), in words” value (shortened to “intrinsic activity”) on CRTH2 Receptor [3] is “high intrinsic activity”.

The compound `Cc1c(Cc2ccccc2S(=O)(=O)C2CCCCC2)c2cc(F)ccc2n1CC(=O)O` [Compound 1, 2-(3-(2-(Cyclohexylsulfonyl)benzyl)-5-fluoro-2-methyl-1H-indol-1-yl)acetic acid] displayed a Ki at CRTH2 Receptor [1] of 0.02 nM. Further, in assay [2], the IC50 worked out at 6 nM and the “activity in whole blood, in words” value is reported as “activity is maintained in whole blood”. For the same compound, the “intrinsic activity” value at CRTH2 Receptor [3] is on record as “high intrinsic activity”.

On to `Cc1c(Cc2ccccc2S(=O)(=O)C2CCCC2)c2cc(F)ccc2n1CC(=O)O` [Compound 3, 2-(3-(2-(Cyclopentylsulfonyl)benzyl)-5-fluoro-2-methyl-1H-indol-1-yl)acetic Acid], for which, at CRTH2 Receptor [1], the Ki was determined as 0.2 nM. In assay [2], the IC50 amounted to 7 nM and the “activity in whole blood, in words” value is “activity is maintained in whole blood”. Besides, at CRTH2 Receptor [3], the “intrinsic activity” value is listed as “high intrinsic activity”.

With `Cc1c(Cc2ccc(S(=O)(=O)N3CCCCC3)cc2)c2cc(F)ccc2n1CC(=O)O` [Compound 10, 2-(5-Fluoro-2-methyl-3-(4-(piperidin-1-ylsulfonyl)benzyl)-1H-indol-1-yl)acetic Acid], the affinity on CRTH2 Receptor [1] corresponds to a Ki of 1 nM.

With `Cc1c(Cc2ccccc2S(=O)(=O)N2CCCCC2)c2cc(F)ccc2n1CC(=O)O` [Compound 2, 2-(5-Fluoro-2-methyl-3-(2-(piperidin-1-ylsulfonyl)benzyl)-1H-indol-1-yl)acetic Acid], on CRTH2 Receptor [1], affinity was put at a Ki of 0.04 nM. In addition, in assay [2], the IC50 worked out at 5 nM and the “activity in whole blood, in words” value is on record as “activity is maintained in whole blood”. Also, the “intrinsic activity” value on CRTH2 Receptor [3] is listed as “high intrinsic activity”.

`Cc1c(Cc2cccc(S(=O)(=O)N3CCCC3)c2)c2cc(F)ccc2n1CC(=O)O` [Compound 9, 2-(5-Fluoro-2-methyl-3-(3-(pyrrolidin-1-ylsulfonyl)benzyl)-1H-indol-1-yl)acetic Acid] registered a Ki at CRTH2 Receptor [1] of 100 nM.

On to `Cc1c(Cc2ccccc2S(=O)(=O)C2CCC2)c2cc(F)ccc2n1CC(=O)O` [Compound 8, 2-(3-(2-(Cyclobutylsulfonyl)benzyl)-5-fluoro-2-methyl-1H-indol-1-yl)acetic Acid], for which, on CRTH2 Receptor [1], the Ki was found to be 3 nM. Further, in assay [2], the IC50 came to 240 nM.

In the case of `Cc1c(Cc2ccc(S(=O)(=O)C3CCCCC3)cc2)c2cc(F)ccc2n1CC(=O)O` [Compound 6, 2-(3-(4-(Cyclohexylsulfonyl)benzyl)-5-fluoro-2-methyl-1H-indol-1-yl)acetic Acid], the Ki on CRTH2 Receptor [1] was found to be 2 nM. Besides, the IC50 in assay [2] stood at 85 nM.
